molecular target: Disintegrin and metalloproteinase domain-containing protein 17 (Homo sapiens, UniProt P78536); assay: ADAM17 protease inhibitors, dose response, counter-screen for ADAM10 exosite inhibitor project, biochemical, quenched FRET substrate (AID 743253)
Sequence (P78536 whole entry, the tested form may be a part): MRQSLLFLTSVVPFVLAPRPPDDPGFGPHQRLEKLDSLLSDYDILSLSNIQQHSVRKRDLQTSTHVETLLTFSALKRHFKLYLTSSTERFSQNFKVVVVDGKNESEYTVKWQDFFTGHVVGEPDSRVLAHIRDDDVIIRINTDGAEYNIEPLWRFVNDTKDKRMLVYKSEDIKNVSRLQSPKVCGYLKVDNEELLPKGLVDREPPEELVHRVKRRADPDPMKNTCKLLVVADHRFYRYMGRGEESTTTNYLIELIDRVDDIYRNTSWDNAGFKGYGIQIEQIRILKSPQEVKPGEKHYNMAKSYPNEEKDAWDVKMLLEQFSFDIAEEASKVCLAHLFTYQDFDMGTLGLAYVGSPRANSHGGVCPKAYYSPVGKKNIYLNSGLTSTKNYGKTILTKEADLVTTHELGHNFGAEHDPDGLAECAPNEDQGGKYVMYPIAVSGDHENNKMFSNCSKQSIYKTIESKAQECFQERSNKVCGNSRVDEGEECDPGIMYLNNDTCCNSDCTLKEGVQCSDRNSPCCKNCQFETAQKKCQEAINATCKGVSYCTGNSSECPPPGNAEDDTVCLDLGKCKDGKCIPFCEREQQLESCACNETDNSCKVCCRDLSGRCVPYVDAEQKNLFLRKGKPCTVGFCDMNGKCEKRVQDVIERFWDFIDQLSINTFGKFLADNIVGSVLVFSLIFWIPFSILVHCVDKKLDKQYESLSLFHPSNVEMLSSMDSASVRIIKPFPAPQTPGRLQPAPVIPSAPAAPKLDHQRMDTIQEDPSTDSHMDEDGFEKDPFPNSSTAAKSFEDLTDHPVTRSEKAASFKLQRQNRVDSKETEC

Point of comparison: `N#CCSc1nc2cc(C(=O)N3CCC(C(N)=O)CC3)ccc2c2nc3ccccc3n12` [1-({6-[(cyanomethyl)thio]benzimidazo[1,2-c]quinazolin-3-yl}carbonyl)piperidine-4-carboxamide], IC50 69.6 µM. Against it:
- COc1ccc(N2C(=O)NC(=O)C(=Cc3c[nH]c4ccc(Br)cc34)C2=O)c(OC)c1 [(5E)-5-[(5-bromo-1H-indol-3-yl)methylene]-1-(2,4-dimethoxyphenyl)pyrimidine-2,4,6(1H,3H,5H)-trione] — 5.8-fold lower, 12 µM
- O=C1C=CC([N+](=O)[O-])=CC1CN=Nc1ccccn1 (stereo not drawn) [MLS000585015] — 7.1-fold lower, 9.75 µM
